How the values were obtained:
tubulin [1] = settings: read-out: Inhibition of tubulin polymerization IC50; ref [34]; cited from earlier work
tubulin [2] = experiment: Inhibition of [3H]colchicine binding to tubulin; settings: inhibitor 5 µM; 1 µM tubulin, 5 µM [3H]colchicine
[3] = system: HUVECs capillary-like tubule network; experiment: HUVEC endothelial tube disruption on Matrigel; assay type: cell-based, human; settings: 2 h treatment of network pre-established over 16 h
[4] = system: NCI-H460 non-small cell lung cancer cell line; experiment: Cytotoxicity, SRB assay, NCI-H460; settings: Homo sapiens, NCI-H460, read-out: GI50 SRB assay NCI-H460
[5] = Solubility in water / D2O; assay type: physicochemical

## COc1ccc(/C=C\c2cc(OC)c(OC)c(OC)c2)c(O)c1O [CA1, Combretastatin A-1]
Tubulin [1]
  IC50: 1.9 µM

## COc1ccc(/C=C\c2cc(OC)c(OC)c(OC)c2)cc1O [CA4, combretastatin A-4, reference compound]
Tubulin [2]
  Inhibition of Colchicine binding: 100%
[3]; 0.01 µM
  Tubule disruption: tubule disruption activity was detected

## COc1ccc2c(c1N)CCCC=C2c1cc(OC)c(OC)c(OC)c1 [Compound 3]
[3]; 0.10 µM
  Tubule disruption: Tubule disruption and cell rounding was observed
[3]; 1 µM
  Tubule disruption: greatly increased
[4]
  GI50: 0.00469 µM

## COc1ccc2c(c1N)CCCC=C2c1cc(OC)c(OC)c(OC)c1.Cl [Compound 16]
[5]; hydrochloride salt
  Solubility in water: limited solubility in water
[5]; in approximately 1.0 mL of D2O (NMR study), clear solution took several days
  Amount completely dissolved: approximately 3 mg
